From patent US7519519B1, “Signature projection score” (Entelos, Inc., priority 2002, dated 2009)
Like-named read-outs stand apart in the source and are kept apart here. Marks after values point to notes of the source that are not given here.

Tests used:
leukocytes = tested on: leukocytes
Procedure: (§1) Control animals were dosed with vehicle only.
The Leukocyte Depletion Signature was derived by analysis of a subset of data from about 2000 in vivo rat drug treatments (using about 300 individual drugs) representing multiple tissues; the method for creation of this dataset is described in the general methods section.

[1] = tested on: Leukocyte Depletion Signature; experiment: Signature Projection Score against the Leukocyte Depletion Signature, bone marrow gene expression data; conditions: maximum over treatments, normalized so highest training treatment = 100, * = p < 0.01, ** = p < 0.001
Description: Using only the genes in the signature, the amount and direction of gene expression changes in an experimental sample are compared (in terms of log ratio of expression signals) against a reference gene expression change (computed as the average over a characterizing set of treatments in our database). The sum over genes of the product of these two differences is computed, and normalized such that the highest score of any of the characterizing treatments when calculated in this way is 100.
After determination of the MTD and FED for a compound, each compound was dissolved in a vehicle for administration on day 1 of the study (additional daily doses were stored as frozen aliquots from this initial formulation). Each compound was administered to three individual male Sprague-Dawley rats for each of the two doses (MTD and FED) for one of four different times (0.25 day, 1 day, 3 days, and 5 days), yielding a total of up to 24 animals per compound study. Vehicle choice was based on solubility of the compound, effect of food on adsorption, and the vehicles used in the literature reports examined during the FED selection investigations, described above. Generally, the route and vehicle in which the FED was defined are used. When there was a choice of routes and vehicles, oral routes were chosen over injection routes. Many compounds, especially oncolytics, are only administrable intravenously. In such cases, the compound was administered as an intravenous formulation into the tail vein. Orally administered compounds were given dissolved in either water, 1% carboxymethycellulose (CMC) or corn oil. Intravenously and intraperitoneally administered compounds were given in 0.9% saline. Subcutaneously administered compounds were given in corn oil. Animal body weights were determined at 1 day and, where appropriate, at 4 days, before necropsy, and clinical observations were made on a daily basis. Control animals were dosed with vehicle only. Three male animals were used for each dose and time combination used for the compound treatment.
Tissue harvest and handling: After the allocated treatment time, the tissues from the animals were harvested. […] All the tissues collected were divided to provide samples for histopathological analyses, and the remainder of each tissue was then snap-frozen. […] Preparation of enriched mRNA: Punch biopsies were taken from the frozen tissues and were completely homogenized before being processed using the MagNA Pure robot. (Roche Diagnostics Corp., Indianapolis, Ind.) in combination with the MagNA Pure LC RNA Isolation kit II (Roche Diagnostics Corp). The amount of lysis buffer was adjusted to allow 1 ml per 50 mg for liver tissue, or 1 ml per 80 mg for all other tissues.

[2] = tested on: Leukocyte Depletion Signature; experiment: Signature Projection Score against the Leukocyte Depletion Signature, spleen gene expression data; format: in vivo, rat; conditions: maximum over treatments, normalized so highest training treatment = 100, * = p < 0.01, ** = p < 0.001
Procedure: as §1

[3] = time point 5 days, average of 3 animals, * = p < 0.01

O=C1[O][Pt]2([NH][C@@H]3CCCC[C@H]3[NH]2)[O]C1=O [OXALIPLATIN]
Max Fold Serum Leukocyte Depletion (leukocytes; maximum over treatments): 2.18 fold | Max Bone Marrow Score (Signature Projection Score) [1]: 14

S=C=Nc1cccc2ccccc12 [1-NAPHTHYL ISOTHIOCYANATE]
Max Fold Serum Leukocyte Depletion (leukocytes; maximum over treatments): 0 fold | Max Bone Marrow Score (Signature Projection Score) [1]: 0

COc1cc([C@@H]2c3cc4c(cc3[C@@H](O[C@@H]3O[C@@H]5CO[C@@H](C)O[C@H]5[C@H](O)[C@H]3O)[C@H]3COC(=O)[C@H]23)OCO4)cc(OC)c1O [ETOPOSIDE]
Max Spleen Score (Signature Projection Score) [2]: 47* | Max Fold Serum Leukocyte Depletion (leukocytes; rat, in vivo): 2.04 fold | Max Bone Marrow Score (Signature Projection Score) [1]: 43*

CC[C@]1(O)C[C@@H]2CN(CCc3c([nH]c4ccccc34)[C@@](C(=O)OC)(c3cc4c(cc3OC)N(C)[C@H]3[C@@](O)(C(=O)OC)[C@H](OC(C)=O)[C@]5(CC)C=CCN6CC[C@]43[C@@H]65)C2)C1 [VINBLASTINE]
Max Bone Marrow Score (Signature Projection Score) [1]: 11

N.N.[Cl][Pt][Cl] [CISPLATIN]
Max Spleen Score (Signature Projection Score) [2]: 25* | Max Fold Serum Leukocyte Depletion (leukocytes; maximum over treatments): 2.01 fold | Max Bone Marrow Score (Signature Projection Score) [1]: 7

ClC(Cl)(Cl)Cl [CARBON TETRACHLORIDE]
Max Fold Serum Leukocyte Depletion (leukocytes; maximum over treatments): 0 fold | Max Bone Marrow Score (Signature Projection Score) [1]: 2

CN(C)C=O [N,N-DIMETHYLFORMAMIDE]
Max Spleen Score (Signature Projection Score) [2]: 3 | Max Bone Marrow Score (Signature Projection Score) [1]: 0

N.N.O=C([O-])C1(C(=O)[O-])CCC1.[Pt+2] [CARBOPLATIN]
Max Spleen Score (Signature Projection Score) [2]: 8 | Max Fold Serum Leukocyte Depletion (leukocytes; maximum over treatments): 0 fold | Max Bone Marrow Score (Signature Projection Score) [1]: 2

CN(C)c1nc(N(C)C)nc(N(C)C)n1 [ALTRETAMINE]
Max Spleen Score (Signature Projection Score) [2]: 5 | Max Fold Serum Leukocyte Depletion (leukocytes; rat, in vivo): 0 fold | Max Bone Marrow Score (Signature Projection Score) [1]: 3

CCC1=C[C@@H]2CN(C1)Cc1c([nH]c3ccccc13)[C@@](C(=O)OC)(c1cc3c(cc1OC)N(C)[C@H]1[C@@](O)(C(=O)OC)[C@H](OC(C)=O)[C@]4(CC)C=CCN5CC[C@]31[C@@H]54)C2 [VINORELBINE]
Max Fold Serum Leukocyte Depletion (leukocytes; rat, in vivo): 1.93 fold | Max Bone Marrow Score (Signature Projection Score) [1]: 44*

O=P1(NCCCl)OCCCN1CCCl (stereo not drawn) [IFOSFAMIDE]
Max Spleen Score (Signature Projection Score) [2]: 11 | Max Bone Marrow Score (Signature Projection Score) [1]: 79**

COc1cccc2c1C(=O)c1c(O)c3c(c(O)c1C2=O)C[C@@](O)(C(C)=O)C[C@@H]3O[C@H]1C[C@H](N)[C@H](O)[C@H](C)O1 [DAUNORUBICIN]
Max Fold Serum Leukocyte Depletion (leukocytes; maximum over treatments): 2.77 fold | Max Bone Marrow Score (Signature Projection Score) [1]: 54*

CS(=O)(=O)OCCCCOS(C)(=O)=O [BUSULFAN]
Max Spleen Score (Signature Projection Score) [2]: 32* | Max Fold Serum Leukocyte Depletion (leukocytes; rat, in vivo): 0 fold | Max Bone Marrow Score (Signature Projection Score) [1]: 19

Nc1nc2nc[nH]c2c(=S)[nH]1 [THIOGUANINE]
Max Spleen Score (Signature Projection Score) [2]: 100** | Fold Decrease in leukocytes (leukocytes; rat, in vivo): 3.63* fold | Max Fold Serum Leukocyte Depletion (leukocytes; rat, in vivo): 3.63 fold | Max Bone Marrow Score (Signature Projection Score) [1]: 24*

C[C@H]1O[C@@H](n2cc(F)c(=O)[nH]c2=O)[C@H](O)[C@@H]1O [DOXIFLURIDINE]
Max Fold Serum Leukocyte Depletion (leukocytes; rat, in vivo): 0 fold | Max Bone Marrow Score (Signature Projection Score) [1]: 56*

Cc1oncc1C(=O)Nc1ccc(C(F)(F)F)cc1 [LEFLUNOMIDE]
Max Spleen Score (Signature Projection Score) [2]: 34* | Max Fold Serum Leukocyte Depletion (leukocytes; rat, in vivo): 2.89 fold | Max Bone Marrow Score (Signature Projection Score) [1]: 7

COc1cccc2c1C(=O)c1c(O)c3c(c(O)c1C2=O)C[C@@](O)(C(=O)CO)C[C@@H]3O[C@H]1C[C@H](N)[C@H](O)[C@H](C)O1 [DOXORUBICIN]
Max Spleen Score (Signature Projection Score) [2]: 75** | Max Fold Serum Leukocyte Depletion (leukocytes; rat, in vivo): 4.70 fold | Max Bone Marrow Score (Signature Projection Score) [1]: 41*

CN(Cc1cnc2nc(N)nc(N)c2n1)c1ccc(C(=O)N[C@@H](CCC(=O)O)C(=O)O)cc1 [METHOTREXATE]
Max Spleen Score (Signature Projection Score) [2]: 75** | Fold Decrease in leukocytes (leukocytes; rat, in vivo): 4.35* fold | Max Fold Serum Leukocyte Depletion (leukocytes; rat, in vivo): 4.35 fold | Max Bone Marrow Score (Signature Projection Score) [1]: 6

O=NN(CCCl)C(=O)NCCCl [CARMUSTINE]
Max Spleen Score (Signature Projection Score) [2]: 31* | Max Fold Serum Leukocyte Depletion (leukocytes; maximum over treatments): 4.49 fold | Fold Decrease in leukocytes (leukocytes; [3]): 4.49* fold | Max Bone Marrow Score (Signature Projection Score) [1]: 39*

NC(=O)NO [HYDROXYUREA]
Max Spleen Score (Signature Projection Score) [2]: 15 | Max Fold Serum Leukocyte Depletion (leukocytes; rat, in vivo): 2.92 fold | Max Bone Marrow Score (Signature Projection Score) [1]: 13

O=NN(CCCl)C(=O)NC1CCCCC1 [LOMUSTINE]
Max Spleen Score (Signature Projection Score) [2]: 23* | Max Fold Serum Leukocyte Depletion (leukocytes; maximum over treatments): 0 fold | Max Bone Marrow Score (Signature Projection Score) [1]: 3

Oc1c(Cl)cc(Cl)cc1Sc1cc(Cl)cc(Cl)c1O [BITHIONOL]
Max Spleen Score (Signature Projection Score) [2]: 2 | Max Fold Serum Leukocyte Depletion (leukocytes; rat, in vivo): 0 fold | Max Bone Marrow Score (Signature Projection Score) [1]: 4

CC(C)(c1ccc(O)cc1)c1ccc(O)cc1 [BISPHENOL A]
Max Spleen Score (Signature Projection Score) [2]: 3 | Max Fold Serum Leukocyte Depletion (leukocytes; rat, in vivo): 0 fold | Max Bone Marrow Score (Signature Projection Score) [1]: 0

CC[C@]1(O)C[C@H]2CN(CCc3c([nH]c4ccccc34)[C@@](C(=O)OC)(c3cc4c(cc3OC)N(C=O)[C@H]3[C@@](O)(C(=O)OC)[C@H](OC(C)=O)[C@]5(CC)C=CCN6CC[C@]43[C@@H]65)C2)C1 [VINCRISTINE]
Max Bone Marrow Score (Signature Projection Score) [1]: 5

CCN(CC)N=O [N-NITROSODIETHYLAMINE]
Max Spleen Score (Signature Projection Score) [2]: 0 | Max Bone Marrow Score (Signature Projection Score) [1]: 7

CO[C@@]12[C@H](COC(N)=O)C3=C(C(=O)C(C)=C(N)C3=O)N1C[C@@H]1N[C@@H]12 [MITOMYCIN C]
Max Spleen Score (Signature Projection Score) [2]: 57* | Max Fold Serum Leukocyte Depletion (leukocytes; maximum over treatments): 3.53 fold | Fold Decrease in leukocytes (leukocytes; [3]): 3.53* fold | Max Bone Marrow Score (Signature Projection Score) [1]: 7

O=C(O)CCCc1ccc(N(CCCl)CCCl)cc1 [CHLORAMBUCIL]
Max Spleen Score (Signature Projection Score) [2]: 65* | Max Fold Serum Leukocyte Depletion (leukocytes; maximum over treatments): 7.08 fold | Fold Decrease in leukocytes (leukocytes; [3]): 7.08* fold | Max Bone Marrow Score (Signature Projection Score) [1]: 9

Cn1cnc([N+](=O)[O-])c1Sc1ncnc2nc[nH]c12 [AZATHIOPRINE]
Max Spleen Score (Signature Projection Score) [2]: 19 | Max Fold Serum Leukocyte Depletion (leukocytes; rat, in vivo): 0 fold | Max Bone Marrow Score (Signature Projection Score) [1]: 11

CC/C(=C(/CC)c1ccc(O)cc1)c1ccc(O)cc1 [DIETHYLSTILBESTROL]
Max Spleen Score (Signature Projection Score) [2]: 30* | Max Bone Marrow Score (Signature Projection Score) [1]: 2

CCO [ETHANOL]
Max Fold Serum Leukocyte Depletion (leukocytes; rat, in vivo): 0 fold | Max Bone Marrow Score (Signature Projection Score) [1]: 2

Nc1ccn([C@@H]2O[C@H](CO)[C@@H](O)[C@@H]2O)c(=O)n1 [CYTARABINE]
Max Spleen Score (Signature Projection Score) [2]: 15 | Max Fold Serum Leukocyte Depletion (leukocytes; rat, in vivo): 2.85 fold | Max Bone Marrow Score (Signature Projection Score) [1]: 2

COc1c(C)c2c(c(O)c1C/C=C(\C)CCC(=O)OCCN1CCOCC1)C(=O)OC2 [MYCOPHENOLATE MOFETIL]
Max Bone Marrow Score (Signature Projection Score) [1]: 9
